Patent US7611858B1, “Detection of cannabinoid receptor biomarkers and uses thereof” (University of Florida Research Foundation, Inc., priority 2004, dated 2009)

Key:
[1] = system: AC133 positive neural progenitors; test: clonal generation of neurospheres from dissociated mouse postnatal forebrain; format: cell-based
[2] = system: AC133 and nestin expression in brain cortex; test: neural stem cell markers in brain after traumatic brain injury in mice treated with 2-AG (blots); format: in vivo
[3] = system: clonal neurospheres from postnatal rat forebrain; format: cell-based; conditions: at 1 μM
[4] = i.p. 5 mg/kg daily, 3 hr, 24 hr and 5 days post injury
[5] = treatment post injury 5 mg/kg i.p. daily

lysophosphatidic acid [LPA]
clonal generation of neurospheres [1]: instigated clonal generation of mouse neurospheres

CCCCC/C=C\C/C=C\C/C=C\C/C=C\CCCC(=O)OC(CO)CO [2-AG, 2-arachidonoyl glycerol]
AC133 in brain cortex after TBI (FIG. 6A) [2, 4]: up-regulation
Nestin in brain cortex after TBI (FIG. 6B) [2, 4]: up-regulation
expression of AC133 neural stem cells after traumatic brain injury (FIG. 10A) [2, 5]: increase of enhanced expression
expression of nestin in neural stem cells after traumatic brain injury (FIG. 10B) [2, 5]: increase of enhanced expression
clonal neurospheres from postnatal rat forebrain (FIG. 8A) [3]: abolition
clonal generation of neurospheres [1]: instigated clonal generation of neurospheres
